These compounds were tested against T1, TDO2 (Homo sapiens, UniProt P48775) (assay: TDO2 cell assay (NFK GreenScreen, SW48 cells)). Conditions: SW48 cells (high TDO expressing), 200 uM tryptophan, 24 hours; Table 3; read-out: TDO2 Cell Fluor EC50.
T1 construct: decreased levels of NFK in SW48 cells (high TDO expressing cells)
Format: cell-based

T1 sequence (P48775 whole entry): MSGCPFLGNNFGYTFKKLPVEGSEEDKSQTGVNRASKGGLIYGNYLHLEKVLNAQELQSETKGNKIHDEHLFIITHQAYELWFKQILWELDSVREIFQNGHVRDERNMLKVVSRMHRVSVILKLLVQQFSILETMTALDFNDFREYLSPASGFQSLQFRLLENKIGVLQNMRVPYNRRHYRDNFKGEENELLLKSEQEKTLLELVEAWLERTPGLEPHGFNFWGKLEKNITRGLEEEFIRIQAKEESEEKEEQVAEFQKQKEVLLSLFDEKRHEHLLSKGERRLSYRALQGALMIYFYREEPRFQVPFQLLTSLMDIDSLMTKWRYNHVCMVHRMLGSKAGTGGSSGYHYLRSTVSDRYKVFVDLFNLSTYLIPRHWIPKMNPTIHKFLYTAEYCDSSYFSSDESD

Row | Structure (SMILES) | EC50
1 | Cc1cc2c(cn1)[C@H](O)[C@H]([C@@H]1c3ccccc3-c3cncn31)C2 [Example 59b, (6S,7R)-6-((R)-5H-imidazo[5,1-a]isoindol-5-yl)-3-methyl-6,7-dihydro-5H-cyclopenta[c]pyridin-7-ol] | 0.82 µM
2 | N#CC1CCC(O)(C2c3ccccc3-c3cncn32)CC1 (single isomer, unassigned) [Example 145b] | 1.1 µM
3 | N#Cc1ccc2c(c1)CCC(C1c3ccccc3-c3cncn31)C2O (single isomer, unassigned) [Example 62d] | 0.082 µM
4 | N#Cc1cnc2c(c1)CCC(C1c3ccccc3-c3cncn31)C2O (single isomer, unassigned) [Example 107g] | 0.87 µM
5 | CC(C)(C(N)=O)[C@@H](O)[C@H]1c2ccccc2-c2cncn21 [Example 155a, (R)-3-hydroxy-3-((R)-5H-imidazo[5,1-a]isoindol-5-yl)-2,2-dimethylpropanamide] | 0.33 µM
6 | CS(=O)(=O)N1CCC(O)(C2c3ccccc3-c3cncn32)C1 (single isomer, unassigned) [Example 116d] | 0.73 µM
7 | CC(C)(C)OC(=O)N1CC2(CC(C3c4ccccc4-c4cncn43)C2O)C1 (single isomer, unassigned) [Example 41a, tert-butyl 7-hydroxy-6-(5H-imidazo[1,5-b]isoindol-5-yl)-2-azaspiro[3.3]heptane-2-carboxylate] | > 25 µM
8 | OC1c2cccnc2CCC1C1c2ccc(F)cc2-c2cncn21 (single isomer, unassigned) [Example 169a] | 0.21 µM
9 | NC(=O)C1([C@H](O)[C@@H]2c3ccccc3-c3cncn32)CC1 [Example 165d, 1-((S)-hydroxy ((S)-5H-imidazo[5,1-a]isoindol-5-yl)methyl)cyclopropane-1-carboxamide] | > 25 µM
10 | CC(C)C(O)C1c2ccccc2-c2cncn21 (single isomer, unassigned) [Example 51d] | 14 µM
11 | N#Cc1cnc2c(c1)CCC(C1c3ccccc3-c3cncn31)C2O (single isomer, unassigned) [Example 107e] | 23 µM
12 | OC1CCOCC1C1c2c(Cl)cccc2-c2cncn21 (single isomer, unassigned) [Example 69a] | > 25 µM
13 | Cn1ncc2c1CCC(C1c3ccccc3-c3cncn31)C2O (single isomer, unassigned) [Example 93c] | 1.4 µM
14 | CS(=O)(=O)N1CCC2(CC1)CC(C1c3ccccc3-c3cncn31)C2O (single isomer, unassigned) [Example 179e] | 6.8 µM
15 | NS(=O)(=O)c1ccc2c(c1)C(O)C(C1c3ccccc3-c3cncn31)CC2 (single isomer, unassigned) [Example 105h] | 0.51 µM
16 | OC1(C2c3ccccc3-c3cncn32)CC(CF)(CF)C1 (racemic) [Example 54, 3,3-bis(fluoromethyl)-1-(5H-imidazo[5,1-a]isoindol-5-yl)cyclobutan-1-ol] | 3.4 µM
17 | CC1(C)CCCC(C)(C2c3ccccc3-c3cncn32)C1O (single isomer, unassigned) [Example 90c] | 0.057 µM
18 | OC1CCOCC1C1c2cccc(F)c2-c2cncn21 (single isomer, unassigned) [Example 170a] | > 25 µM
19 | NS(=O)(=O)N1CCC2(CC1)CC(C1c3ccccc3-c3cncn31)C2O (single isomer, unassigned) [Example 181b] | > 25 µM
20 | N#Cc1ccc2c(c1)C(O)C(C1c3ccccc3-c3cncn31)CC2 (single isomer, unassigned) [Example 113c] | 0.06 µM
21 | CS(=O)(=O)N1CCC(O)(C2c3ccccc3-c3cncn32)C1 (single isomer, unassigned) [Example 116a] | > 25 µM
22 | CC(C)(C)OC(=O)N1CC2(CC(C3c4ccccc4-c4cncn43)C2O)C1 (single isomer, unassigned) [Example 41e, tert-butyl 7-hydroxy-6-(5H-imidazo[1,5-b]isoindol-5-yl)-2-azaspiro[3.3]heptane-2-carboxylate] | 0.62 µM
23 | N#CC1CCC(O)(C2c3ccccc3-c3cncn32)CC1 (single isomer, unassigned) [Example 145d] | > 25 µM
24 | O[C@@H](C1CCOCC1)[C@@H]1c2ccccc2-c2cncn21 (single isomer, unassigned) [Example 138d] | 10 µM
25 | CCS(=O)(=O)N1CCC2(CCC(C3c4ccccc4-c4cncn43)C2O)CC1 (single isomer, unassigned) [Example 76b] | 15 µM
26 | OC1c2cnncc2CCC1C1c2ccccc2-c2cncn21 (single isomer, unassigned) [Example 112d] | 5.6 µM
27 | CS(=O)(=O)c1ccc2c(c1)CCC(C1c3ccccc3-c3cncn31)C2O (single isomer, unassigned) [Example 36f] | 0.14 µM
28 | O[C@@H]1COCC[C@H]1[C@H]1c2c(F)cccc2-c2cncn21 [Example 120a, (3S,4S)-4-((S)-6-fluoro-5H-imidazo[5,1-a]isoindol-5-yl)tetrahydro-2H-pyran-3-ol] | > 25 µM
29 | CCC(O)C1c2ccccc2-c2cncn21 (single isomer, unassigned) [Example 137a] | > 25 µM
30 | O[C@@H]1CCOC[C@H]1[C@H]1c2ccc(F)cc2-c2cncn21 (single isomer, unassigned) [Example 34b] | > 25 µM

Results, then the compound that gave them:

Row | EC50 | Structure (SMILES)
31 | > 25 µM | N#CCN1CCC(O)C(C2c3ccccc3-c3cncn32)C1 (single isomer, unassigned) [Example 14b]
32 | > 25 µM | OC1CC2(COC2)C1C1c2ccccc2-c2cncn21 (single isomer, unassigned) [Example 87d]
33 | > 25 µM | O=S(=O)(C1CC1)N1CC[C@@H](O)[C@H]([C@H]2c3ccccc3-c3cncn32)C1 (single isomer, unassigned) [Example 70a]
34 | 5.5 µM | CC1(C)CCCC(C2c3ccccc3-c3cncn32)C1O (single isomer, unassigned) [Example 24c]
35 | > 25 µM | N#CCN1CCC(O)C(C2c3ccccc3-c3cncn32)C1 (single isomer, unassigned) [Example 58b]
36 | 0.25 µM | Cc1cnn2c1C(O)C(C1c3ccccc3-c3cncn31)CC2 (single isomer, unassigned) [Example 159c]
37 | 14 µM | Cc1cnn2c1C(O)C(C1c3ccccc3-c3cncn31)CC2 (single isomer, unassigned) [Example 159b]
38 | 12 µM | O[C@@H]1CC(CF)(CF)[C@@H]1[C@H]1c2ccccc2-c2cncn21 [Example 150a, (1R,2R)-3,3-bis(fluoromethyl)-2-((S)-5H-imidazo[5,1-a]isoindol-5-yl)cyclobutan-1-ol]
39 | 18 µM | OC1CC2(CC2)C1C1c2ccccc2-c2cncn21 (single isomer, unassigned) [Example 72h]
40 | > 25 µM | OC1CCCC1C1c2ccccc2-c2cncn21 (single isomer, unassigned) [Example 02h]
41 | > 25 µM | O=S(=O)(C1CC1)N1CC[C@@H](O)[C@H]([C@@H]2c3ccccc3-c3cncn32)C1 (single isomer, unassigned) [Example 70d]
42 | 18 µM | Nc1cc2n(n1)CCC(C1c3ccccc3-c3cncn31)C2O (single isomer, unassigned) [Example 161h]
43 | > 25 µM | OC1CCCOCC1C1c2ccccc2-c2cncn21 (single isomer, unassigned) [Example 86c]
44 | > 25 µM | OC1CCCCC1C1c2ccccc2-c2cncn21 (single isomer, unassigned) [Example 03c]
45 | 1.2 µM | CS(=O)(=O)N1CCC(O)C(C2c3ccccc3-c3cncn32)CC1 (single isomer, unassigned) [Example 92a]
46 | > 25 µM | OC1c2cc(CF)nn2CCC1C1c2ccccc2-c2cncn21 (single isomer, unassigned) [Example 95a]
47 | > 25 µM | NS(=O)(=O)N1CC[C@@H]([C@@H]2c3ccccc3-c3cncn32)[C@H](O)C1 (single isomer, unassigned) [Example 39c]
48 | 3.7 µM | NS(=O)(=O)N1CC[C@@H]([C@H]2c3ccccc3-c3cncn32)[C@H](O)C1 (single isomer, unassigned) [Example 39b]
49 | 17 µM | CC1(C)CCC(C2c3ccccc3-c3cncn32)C1O (single isomer, unassigned) [Example 23e]
50 | > 25 µM | O[C@@H]1CCOC[C@H]1[C@@H]1c2ccccc2-c2cncn21 [Example 05c, (3R,4R)-3-((R)-5H-imidazo[5,1-a]isoindol-5-yl)-tetrahydro-2H-pyran-4-ol]
51 | > 25 µM | OC1c2nccn2CCC1C1c2ccccc2-c2cncn21 (single isomer, unassigned) [Example 88c]
52 | > 25 µM | CCS(=O)(=O)N1CC[C@H]([C@@H]2c3ccccc3-c3cncn32)[C@@H](O)C1 [Example 16b, (3R,4R)-1-(ethylsulfonyl)-4-((R)-5H-imidazo[5,1-a]isoindol-5-yl)piperidin-3-ol]
53 | > 25 µM | CC(C)(C)OC(=O)N1CC[C@H](O)[C@@H]([C@@H]2c3ccccc3-c3cncn32)C1 [Example 11b, (3R,4S)-tert-butyl 4-hydroxy-3-((R)-5H-imidazo[5,1-a]isoindol-5-yl)piperidine-1-carboxylate]
54 | 4.3 µM | Cn1ncc2c1CCC(C1c3ccccc3-c3cncn31)C2O (single isomer, unassigned) [Example 93e]
55 | 0.43 µM | OC1c2cncn2CC[C@H]1[C@H]1c2ccccc2-c2cncn21 (stereo in doubt) [Example 07c, (7S,8R)-7-((S)-5H-imidazo[5,1-a]isoindol-5-yl)-5,6,7,8-tetrahydroimidazo[1,5-a]pyridin-8-ol]
56 | 8.6 µM | CS(=O)(=O)N1CCC(O)C(C2c3ccccc3-c3cncn32)CC1 (single isomer, unassigned) [Example 92b]
57 | > 25 µM | N#CCN1CC[C@@H]([C@H]2c3ccccc3-c3cncn32)[C@H](O)C1 (single isomer, unassigned) [Example 27a]
58 | 18 µM | CS(=O)(=O)N1CCC(O)C(C2c3ccccc3-c3cncn32)CC1 (single isomer, unassigned) [Example 92c]
59 | 0.065 µM | O[C@H]1CCC(F)(F)C[C@H]1[C@H]1c2ccccc2-c2cncn21 [Example 18a, (1S,2S)-4,4-difluoro-2-((S)-5H-imidazo[5,1-a]isoindol-5-yl)cyclohexan-1-ol]

Reference: patent US12583858B2 (Genentech, Inc., priority 2015, dated 2026)
